Assay results from paper PMC8025741 (Journal of medicinal chemistry, 2020).
Entries after “also recorded” stand apart in the source; their conditions may differ. Structures can show the parent of a compound that is named as a salt. Where two headings read alike, the source gives them in different places.

How the values were obtained:
[1] = in vitro metabolic stability, human liver microsomes; conditions: pH 7.4
[2] = stability studies and metabolite identification in mice and human microsomes; conditions: for metabolic stability (in words): mice and human microsomes
5XFAD mice = test: fear conditioning test in 5XFAD mice; type: in vivo, mouse; conditions: 5XFAD mice at 8 months, 10 mg/kg ip daily for 5 months, listed as 1 (PDDC)
[3] = cited from earlier work
[4] = cited from earlier work; remark: listed apart in the source

Row | Structure (SMILES) | metabolic stability (in words) [2] | further results
1 | COc1ccc(-c2c(C)nc3c(N4CC[C@@H](NC(=O)Oc5ccccc5)C4)cc(C)nn23)cc1OC [Compound 1, Phenyl(R)-(1-(3-(3,4-Dimethoxyphenyl)-2,6-dimethylimidazo[1,2-b]pyridazin-8-yl)pyrrolidin-3-yl)carbamate] | generally stable | remaining at 1 h, 1 µM [1]: 103 ± 14%; metabolite identification (MET-ID) ([2]; human and mouse liver microsomes, Figure S1): O-demethylated metabolite; contextual fear memory (freezing, day 2) (5XFAD mice): performed like WT controls
2 | CC(=O)N[C@@H]1CCN(c2cc(C)nn3c(-c4ccc(OC(F)(F)F)cc4)c(C)nc23)C1 [Compound 47, (R)-N-(1-(2,6-Dimethyl-3-(4-(trifluoromethoxy)-phenyl)imidazo[1,2-b]pyridazin-8-yl)pyrrolidin-3-yl)acetamide] | reasonable metabolic stability | 
3 | COc1ccc(-c2c(C)nc3c(N4CC[C@@H](NC(=O)C(F)(F)F)C4)cc(C)nn23)cc1OC [Compound 52, (R)-N-(1-(3-(3,4-Dimethoxyphenyl)-2,6-dimethylimidazo[1,2-b]pyridazin-8-yl)pyrrolidin-3-yl)-2,2,2-trifluoroacetamide] | generally stable | 
4 | CCCCCC(=O)N[C@@H]1CCN(c2cc(C)nn3c(-c4ccc(OC)c(OC)c4)c(C)nc23)C1 [Compound 53, (R)-N-(1-(3-(3,4-Dimethoxyphenyl)-2,6-dimethylimidazo[1,2-b]pyridazin-8-yl)pyrrolidin-3-yl)hexanamide Hydrochloride] | generally stable | 
5 | COc1ccc(-c2c(C)nc3c(N4CC[C@@H](NC(=O)Nc5ccccc5)C4)cc(C)nn23)cc1OC [Compound 59, (R)-1-(1-(3-(3,4-Dimethoxyphenyl)-2,6-dimethylimidazo[1,2-b]pyridazin-8-yl)pyrrolidin-3-yl)-3-phenylurea] | generally stable | 
6 | COc1ccc(-c2c(C)nc3c(N4CC[C@@H](NS(=O)(=O)C5CC5)C4)cc(C)nn23)cc1OC [Compound 66, (R)-N-(1-(3-(3,4-Dimethoxyphenyl)-2,6-dimethylimidazo[1,2-b]pyridazin-8-yl)pyrrolidin-3-yl)cyclopropanesulfonamide] | generally stable; also recorded: completely stable | 
7 | COc1ccc(-c2c(C)nc3c(N4CC[C@@H](NS(=O)(=O)c5cccs5)C4)cc(C)nn23)cc1OC [Compound 73, (R)-N-(1-(3-(3,4-Dimethoxyphenyl)-2,6-dimethylimidazo[1,2-b]pyridazin-8-yl)pyrrolidin-3-yl)thiophene-2-sulfonamide] | generally stable; also recorded: completely stable | 
8 | COc1ccc(-c2c(C)nc3c(N4CCCC4)cc(C)nn23)cc1OC [Compound 76c, 3-(3,4-Dimethoxyphenyl)-2,6-dimethyl-8-(pyrrolidin-1-yl)imidazo[1,2-b]pyridazine] | metabolically unstable | 
9 | COc1cc(-c2nc(-c3cccs3)c(-c3ccccc3)[nH]2)cc(OC)c1O [DPTIP] |  | oral bioavailability (in words) [3]: not orally bioavailable; brain penetration (in words) ([3]; vs PDDC): poor brain penetration
10 | O=c1[nH]c(=S)[nH]c(-c2ccccc2)c1Cc1c(O)ccc2ccccc12 [cambinol] |  | metabolic stability (in words) [4]: poor metabolic stability
